Laboratory results published in article PMC4055595, “Pharmacokinetic Compatibility of Ginsenosides and Schisandra Lignans in Shengmai-san: From the Perspective of P-Glycoprotein” (PLoS ONE, 2014).

Tests used:
Caco-2 cell monolayer = assay: Transport of digoxin and ginsenosides across Caco-2 cell monolayer (efflux ratio); type: in vitro ADME, human; conditions: for Effect of verapamil on efflux ratio: Caco-2 cells, 10 µM verapamil; for Effect of SLE on BL-AP transport / efflux ratio: Caco-2 monolayer, SLE 2.0 and 10.0 µg/mL
Protocol: Caco-2 cells were purchased from American Type Culture Collection (Manassas, VA), and were routinely cultured in Dulbecco's modified Eagle's medium supplemented with 10% fetal bovine serum, 1% nonessential amino acids, 1 mM sodium pyruvate, and 100 U/mL penicillin and streptomycin (Invitrogen, Carlsbad, CA). The cells were grown in an atmosphere of 5% CO2 at 37°C, and cell medium was changed every other day. Cells were seeded at a density of 4×10^4 cells per well in 24-well microporous polycarbonate insert filter plates (0.4-µm pore size) (Corning Costar plates; Corning Life Sciences, Lowell, MA) and grown for 15 days in Caco-2 growth medium. The medium was replaced every 3 to 4 days. Before running the assay, the culture medium was replaced by HBSS buffer supplemented with 10 mM Hepes and 20 mM glucose.
Caco-2 cells with a density of 1.2×10^5 cells/insert were seeded on a permeable polycarbonate insert (Millicell cell culture inserts, 0.4 µm pore size, 12 mm diameter; Millipore Corporation) in 24-well tissue culture plates and were used for the experiment 18 to 21 days after seeding. [^14C]Mannitol permeability and transepithelial electrical resistance measurements (Millicell-ERS epithelial volt-ohm meter; Millipore Corporation) were used to evaluate the integrity of Caco-2 cell monolayer. The monolayer used in transport studies had transepithelial electrical resistance values exceeding 600 Ω·cm^2, and the leakage of mannitol was less than 0.3% of the dose/h. Before transport initiation studies, the cell monolayer was first washed with warm HBSS (pH 7.4) twice. HBSS containing SLE (2.0 and 10.0 µg/mL) or 1% ethanol (control) was then loaded into both apical and basolateral chambers. After incubation at 37°C for 1.5 h, 100 µg/mL of GE was added to either the apical or basolateral side to evaluate the transport in absorptive and secretory directions, and the cell monolayer was incubated for another 2 h. 10 µM verapamil was used as a positive control inhibitor. At the designated time point, samples were taken from the receiving chamber for analysis. Ginsenosides were determined by LC-MS. All experiments were conducted in triplicate.
For the transport assay, the apparent permeability (P app, cm/s) in each direction (A→B and B→A) was calculated as follows, where A is the surface area of the membrane inserts (0.0804 cm^2), C 0 is the initial concentration of the compound applied in the donor compartment (2 µM), and △Q is the amount (micromoles) of compound transported over time △t (5 h = 18,000 s): [drawing 1]
The efflux ratio (ER) was a dimensionless number calculated as the ratio of the apparent permeability in the B→A direction divided by the apparent permeability in the A→B direction. [drawing 2]

P-gp = test system: P-gp; design: method as in PMID 16557452; conditions: Caco-2 cell monolayer; cited from earlier work

| Effect of verapamil on efflux ratio (Caco-2 cell monolayer) | Effect of SLE on BL-AP transport / efflux ratio (Caco-2 cell monolayer) | SMILES | Transport by P-gp (P-gp) |
| --- | --- | --- | --- |
| decreased significantly | concentration dependently decrease | CC(C)=CCC[C@](C)(O[C@@H]1O[C@H](CO[C@@H]2O[C@H](CO)[C@@H](O)[C@H](O)[C@H]2O)[C@@H](O)[C@H](O)[C@H]1O)[C@H]1CC[C@]2(C)[C@@H]1[C@H](O)C[C@@H]1[C@@]3(C)CC[C@H](O[C@@H]4O[C@H](CO)[C@@H](O)[C@H](O)[C@H]4O[C@@H]4O[C@H](CO)[C@@H](O)[C@H](O)[C@H]4O)C(C)(C)[C@@H]3CC[C@]12C [Rb1, ginsenoside Rb1] | not be transported by P-gp |
| decreased significantly | concentration dependently decrease | CC(C)=CCC[C@](C)(O[C@@H]1O[C@H](CO)[C@@H](O)[C@H](O)[C@H]1O)[C@H]1CC[C@]2(C)[C@@H]1[C@H](O)C[C@@H]1[C@@]3(C)CC[C@H](O[C@@H]4O[C@H](CO)[C@@H](O)[C@H](O)[C@H]4O[C@@H]4O[C@H](CO)[C@@H](O)[C@H](O)[C@H]4O)C(C)(C)[C@@H]3CC[C@]12C [Rd, ginsenoside Rd] | – |
